This note sets out measurements from patent US7179825B2, “Retinoic acid mimetic anilides” (Janssen Pharmaceutica N.V., priority 1997, dated 2007).

The test system of one experiment is metabolism of retinoic acid in human breast cancer cells. As to the kind of experiment: Inhibition of retinoic acid (RA) metabolism (Example C.1). The format is cell-based. The settings on record: MCF-7 human breast cancer cells, 3H-RA as substrate; concentration needed to reduce the amount of metabolites to 50% of the control. Put shortly:
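MCF-7 cells, pre-stimulated with RA the day before, incubated with ³H-RA substrate and test compound in 1% DMSO. Polar ³H-metabolites separated from unmetabolized RA and counted by scintillation. IC50 is the concentration cutting metabolite formation to 50% of control, with blank run alongside.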
Broadly, the IC50 is the point on the concentration scale where inhibition reaches its midpoint. In the case of `CCOc1c(F)c(F)c(/C=C(\C)C(=O)Nc2ccc(C(C(C)C)n3ccnc3)cc2)c(F)c1F` (racemic) [Compound 606], the half-inhibitory concentration (IC50) is 13.6 nM.

On to `CC(C)C(c1ccc(NC(=O)Nc2cccc(F)c2)cc1)(C(C)C)n1ccnc1` [Compound 746], for which the IC50 was over 100 nM.

Turning to `CCOc1ccc(C(=O)Nc2ccc(C(C(CC)CC)n3ccnc3)cc2)cc1` (racemic) [Compound 35], the half-inhibitory concentration (IC50) is 2.24 nM.

As to `CC(C)C(c1ccc(NC(=O)NCc2ccc(Cl)cc2)cc1)n1ccnc1` (stereo not drawn) [Compound 273], the IC50 came to 52.7 nM.

Regarding `CC(C)C(c1ccc(NC(=O)Cc2ccc(N)cc2)cc1)n1ccnc1` (stereo not drawn) [Compound 152], the concentration for half-maximal inhibition (IC50) stood at 5.18 nM.

Take `CC(=O)Nc1ccc(C(c2cccc(C(F)(F)F)c2)n2ccnc2)cc1` (stereo not drawn) [Compound 524]: the 50% inhibitory concentration (IC50) is over 1000 nM.

Regarding `CC(C)C(c1ccc(NC(=O)C2CCCCC2C)cc1)n1ccnc1` (racemic) [Compound 202], the concentration for half-maximal inhibition (IC50) came to 1.84 nM.

Take `CCC(CC)C(c1ccc(NC(=O)Cc2ccc(O)c(OC)c2)cc1)n1cncn1` (racemic) [Compound 72]: the IC50 stood at 1.66 nM.

On to `CCC(CC)C(c1ccc(NC(=O)c2ccc3c(c2)C(C)(C)CCC3(C)C)cc1)n1ccnc1` (racemic) [Compound 30], for which the IC50 was 25.8 nM.

On to `CC(=Cc1cccc(F)c1)C(=O)Nc1ccc(C(C(C)C)n2ccnc2)cc1` (racemic) [Compound 586], for which the IC50 was determined as 3.74 nM.

For the compound `CC(C=Cc1ccccc1)C(=O)Nc1ccc(C(C(C)C)n2ccnc2)cc1` (mixture of isomers) [Compound 165], the IC50 turned out to be 10.8 nM.

As for `CC(C(=O)Nc1ccc(C(C(C)C)n2ccnc2)cc1)c1ccccc1` (stereo not drawn) [Compound 657], the half-inhibitory concentration (IC50) amounted to 5.36 nM.

Take `C/C(=C\c1ccccc1)C(=O)Nc1ccc(C(C2CCCC2)n2ccnc2)cc1` (racemic) [Compound 470]: the IC50 was 18.7 nM.

For the compound `CC(C)C(c1ccncc1)c1ccc(NC(=O)Nc2cccc(F)c2)cc1` (racemic) [Compound 692], the half-maximal inhibitory concentration (IC50) is 38 nM.

In the case of `CC(C)C(c1ccc(NC(=O)C2(c3ccccc3)CC2)cc1)n1ccnc1` (stereo not drawn) [Compound 190], the half-maximal inhibitory concentration (IC50) is over 100 nM.

For `CCC(CC)C(c1ccc(NC(=O)Cc2ccc(O)cc2)cc1)n1cncn1` (racemic) [Compound 69], the IC50 was 0.25 nM.

`CCC(CC)C(c1ccc(NC(=O)Cc2ccc3nc(N)sc3c2)cc1)n1ccnc1` (racemic) [Compound 58]: the IC50 was under 0.01 nM.

For `O=C(Nc1ccc(C(c2ccccc2)n2ccnc2)cc1)Nc1cccc(F)c1` (racemic) [Compound 735], the concentration for half-maximal inhibition (IC50) was over 100 nM.

Consider `CC(C)C(c1ccc(NC(=O)Cc2ccc3c(c2)OCCO3)cc1)n1ccnc1` (racemic) [Compound 255], for which the IC50 was determined as 6.24 nM.

For `CCC(CC)C(c1ccc(NC(=O)Nc2cccc(F)c2)cc1)n1cncn1` (racemic) [Compound 723], the 50% inhibitory concentration (IC50) is 1.13 nM.

In the case of `CCCC(=C(C)C(=O)Nc1ccc(C(C(C)C)n2ccnc2)cc1)c1ccccc1` (mixture of isomers) [Compound 519], the IC50 was found to be 3.8 nM.

For `O=C(Cc1ccc(Cl)cc1)Nc1ccc(C(c2ccc(Cl)cc2)n2ccnc2)cc1` (racemic) [Compound 356], the IC50 is over 100 nM.

With `CC(C)C(c1ccc(NC(=O)c2cccc3nccnc23)cc1)n1ccnc1` (racemic) [Compound 233], the 50% inhibitory concentration (IC50) was 2.43 nM.

Consider `CC(C)C(c1ccc(NC(=O)c2cnc3ccccc3c2)cc1)n1ccnc1` (racemic) [Compound 241], for which the concentration for half-maximal inhibition (IC50) turned out to be 2.59 nM.

On to `CC(C)C(c1ccc(NC(=O)NCc2ccccc2)cc1)n1ccnc1` (stereo not drawn) [Compound 269], for which the half-maximal inhibitory concentration (IC50) is 2.66 nM.

For the compound `CCC(CC)C(c1ccc(NC(=O)C(SC)c2ccccc2)cc1)n1ccnc1` (stereo not drawn) [Compound 50], the IC50 was 7.44 nM.

As for `C/C(=C\c1ccccc1)C(=O)N(C)c1ccc(C(C(C)C)n2ccnc2)cc1` (racemic) [Compound 421], the half-inhibitory concentration (IC50) is over 100 nM.

For the compound `CCC(C(c1ccc(NC(=O)Cc2ccc(OC)c(OC)c2)cc1)n1cncn1)N(C)C` (single isomer, unassigned) [Compound 646], the IC50 worked out at 3.07 nM.

Turning to `COc1cc(CC(=O)Nc2ccc(C(C(C)C)n3ccnc3)cc2)cc(OC)c1OC` (stereo not drawn) [Compound 139], the IC50 turned out to be 1.75 nM.

For `C/C(=C\c1cccc2ccccc12)C(=O)Nc1ccc(C(C(C)C)n2ccnc2)cc1` (racemic) [Compound 593], the half-inhibitory concentration (IC50) was found to be 2.7 nM.

Turning to `CCC(CC)C(c1ccc(NC(=O)Cc2ccc(OC)c(Cl)c2)cc1)n1ccnc1` (racemic) [Compound 116], the half-inhibitory concentration (IC50) worked out at 0.678 nM.

For `CC(C)C(c1ccc(NC(=O)Cc2cccc3ccccc23)cc1)n1ccnc1` (racemic) [Compound 246], the IC50 turned out to be 2.1 nM.

With `CC(C(c1ccc(NC(=O)Cc2ccc(O)c(Cl)c2)cc1)n1ccnc1)N(C)C` (single isomer, unassigned) [Compound 307], the IC50 was found to be 0.701 nM.

Turning to `CC(=Cc1ccc(Cl)cc1)C(=O)Nc1ccc(C(C(C)C)n2ccnc2)cc1` (racemic) [Compound 579], the IC50 was 12.4 nM.

As to `CCC(CC)C(c1ccc(NC(=O)C2CCN(C(=O)OC(C)(C)C)CC2)cc1)n1ccnc1` (racemic) [Compound 53], the half-inhibitory concentration (IC50) was 2.12 nM.

As for `CCC(CC)C(c1ccc(NC(=O)C(O)c2ccc(C)c(C)c2)cc1)n1cncn1` (mixture of isomers) [Compound 11], the IC50 came out at 2.63 nM.

The test system of a further experiment is Ovariectomized rats. As to the kind of experiment: Vaginal keratinization test on ovariectomized rats (Example C.2). The format is in vivo. The settings on record: estradiol undecylate induced keratinization, per os once daily on days 1-3, active dose = 50% of rats show complete suppression. Put shortly: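 Ovariectomized rats given s.c. estradiol undecylate (100 μg per 100 g body weight in sesame oil), then oral compound once daily on days 1-3 (vehicle PEG 200). Vaginas assessed histologically one day after last dose; lowest active dose (mg/kg) is the dose giving complete keratinization suppression in 50% of rats.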
Regarding `CCOc1c(F)c(F)c(/C=C(\C)C(=O)Nc2ccc(C(C(C)C)n3ccnc3)cc2)c(F)c1F` (racemic) [Compound 606], the “LAD (lowest active dose)” value is listed as over 10.00 mg/kg.

Regarding `CC(C)C(c1ccc(NC(=O)Nc2cccc(F)c2)cc1)(C(C)C)n1ccnc1` [Compound 746], the “LAD (lowest active dose)” value is over 5.00 mg/kg.

Consider `CCOc1ccc(C(=O)Nc2ccc(C(C(CC)CC)n3ccnc3)cc2)cc1` (racemic) [Compound 35], for which the “LAD (lowest active dose)” value was found to be 2.50 mg/kg.

Regarding `CC(C)C(c1ccc(NC(=O)NCc2ccc(Cl)cc2)cc1)n1ccnc1` (stereo not drawn) [Compound 273], the “LAD (lowest active dose)” value is over 10.00 mg/kg.

As for `CC(C)C(c1ccc(NC(=O)Cc2ccc(N)cc2)cc1)n1ccnc1` (stereo not drawn) [Compound 152], the “LAD (lowest active dose)” value is over 5.00 mg/kg.

For `CC(=O)Nc1ccc(C(c2cccc(C(F)(F)F)c2)n2ccnc2)cc1` (stereo not drawn) [Compound 524], the “LAD (lowest active dose)” value was 20.00 mg/kg.

Regarding `CC(C)C(c1ccc(NC(=O)C2CCCCC2C)cc1)n1ccnc1` (racemic) [Compound 202], the “LAD (lowest active dose)” value is given as over 10.00 mg/kg.

As to `CCC(CC)C(c1ccc(NC(=O)Cc2ccc(O)c(OC)c2)cc1)n1cncn1` (racemic) [Compound 72], the “LAD (lowest active dose)” value was found to be 2.50 mg/kg.

For the compound `CCC(CC)C(c1ccc(NC(=O)c2ccc3c(c2)C(C)(C)CCC3(C)C)cc1)n1ccnc1` (racemic) [Compound 30], the “LAD (lowest active dose)” value is given as over 5.00 mg/kg.

For `CC(=Cc1cccc(F)c1)C(=O)Nc1ccc(C(C(C)C)n2ccnc2)cc1` (racemic) [Compound 586], the “LAD (lowest active dose)” value is listed as over 10.00 mg/kg.

`CC(C=Cc1ccccc1)C(=O)Nc1ccc(C(C(C)C)n2ccnc2)cc1` (mixture of isomers) [Compound 165]: the “LAD (lowest active dose)” value was over 20.00 mg/kg.

For `CC(C(=O)Nc1ccc(C(C(C)C)n2ccnc2)cc1)c1ccccc1` (stereo not drawn) [Compound 657], the “LAD (lowest active dose)” value was over 10.00 mg/kg.

Take `C/C(=C\c1ccccc1)C(=O)Nc1ccc(C(C2CCCC2)n2ccnc2)cc1` (racemic) [Compound 470]: the “LAD (lowest active dose)” value is on record as over 20.00 mg/kg.

As to `CC(C)C(c1ccncc1)c1ccc(NC(=O)Nc2cccc(F)c2)cc1` (racemic) [Compound 692], the “LAD (lowest active dose)” value is listed as over 10.00 mg/kg.

For `CC(C)C(c1ccc(NC(=O)C2(c3ccccc3)CC2)cc1)n1ccnc1` (stereo not drawn) [Compound 190], the “LAD (lowest active dose)” value is over 10.00 mg/kg.

Take `CCC(CC)C(c1ccc(NC(=O)Cc2ccc(O)cc2)cc1)n1cncn1` (racemic) [Compound 69]: the “LAD (lowest active dose)” value is recorded as 2.50 mg/kg.

On to `CCC(CC)C(c1ccc(NC(=O)Cc2ccc3nc(N)sc3c2)cc1)n1ccnc1` (racemic) [Compound 58], for which the “LAD (lowest active dose)” value was determined as 5.00 mg/kg.

On to `O=C(Nc1ccc(C(c2ccccc2)n2ccnc2)cc1)Nc1cccc(F)c1` (racemic) [Compound 735], for which the “LAD (lowest active dose)” value is reported as 10.00 mg/kg.

For `CC(C)C(c1ccc(NC(=O)Cc2ccc3c(c2)OCCO3)cc1)n1ccnc1` (racemic) [Compound 255], the “LAD (lowest active dose)” value was 5.00 mg/kg.

As for `CCC(CC)C(c1ccc(NC(=O)Nc2cccc(F)c2)cc1)n1cncn1` (racemic) [Compound 723], the “LAD (lowest active dose)” value was 5.00 mg/kg.

Take `CCCC(=C(C)C(=O)Nc1ccc(C(C(C)C)n2ccnc2)cc1)c1ccccc1` (mixture of isomers) [Compound 519]: the “LAD (lowest active dose)” value is reported as over 10.00 mg/kg.

As for `O=C(Cc1ccc(Cl)cc1)Nc1ccc(C(c2ccc(Cl)cc2)n2ccnc2)cc1` (racemic) [Compound 356], the “LAD (lowest active dose)” value is over 10.00 mg/kg.

Consider `CC(C)C(c1ccc(NC(=O)c2cccc3nccnc23)cc1)n1ccnc1` (racemic) [Compound 233], for which the “LAD (lowest active dose)” value is listed as over 10.00 mg/kg.

As to `CC(C)C(c1ccc(NC(=O)c2cnc3ccccc3c2)cc1)n1ccnc1` (racemic) [Compound 241], the “LAD (lowest active dose)” value worked out at 10.00 mg/kg.

Consider `CC(C)C(c1ccc(NC(=O)NCc2ccccc2)cc1)n1ccnc1` (stereo not drawn) [Compound 269], for which the “LAD (lowest active dose)” value is given as over 10.00 mg/kg.

On to `CCC(CC)C(c1ccc(NC(=O)C(SC)c2ccccc2)cc1)n1ccnc1` (stereo not drawn) [Compound 50], for which the “LAD (lowest active dose)” value is recorded as 2.50 mg/kg.

As to `C/C(=C\c1ccccc1)C(=O)N(C)c1ccc(C(C(C)C)n2ccnc2)cc1` (racemic) [Compound 421], the “LAD (lowest active dose)” value is listed as over 10.00 mg/kg.

In the case of `CCC(C(c1ccc(NC(=O)Cc2ccc(OC)c(OC)c2)cc1)n1cncn1)N(C)C` (single isomer, unassigned) [Compound 646], the “LAD (lowest active dose)” value worked out at 5.00 mg/kg.

In the case of `COc1cc(CC(=O)Nc2ccc(C(C(C)C)n3ccnc3)cc2)cc(OC)c1OC` (stereo not drawn) [Compound 139], the “LAD (lowest active dose)” value worked out at 10.00 mg/kg.

Consider `C/C(=C\c1cccc2ccccc12)C(=O)Nc1ccc(C(C(C)C)n2ccnc2)cc1` (racemic) [Compound 593], for which the “LAD (lowest active dose)” value is over 10.00 mg/kg.

Consider `CCC(CC)C(c1ccc(NC(=O)Cc2ccc(OC)c(Cl)c2)cc1)n1ccnc1` (racemic) [Compound 116], for which the “LAD (lowest active dose)” value stood at 2.50 mg/kg.

Regarding `CC(C)C(c1ccc(NC(=O)Cc2cccc3ccccc23)cc1)n1ccnc1` (racemic) [Compound 246], the “LAD (lowest active dose)” value was 10.00 mg/kg.

`CC(C(c1ccc(NC(=O)Cc2ccc(O)c(Cl)c2)cc1)n1ccnc1)N(C)C` (single isomer, unassigned) [Compound 307]: the “LAD (lowest active dose)” value is over 2.50 mg/kg.

On to `CC(=Cc1ccc(Cl)cc1)C(=O)Nc1ccc(C(C(C)C)n2ccnc2)cc1` (racemic) [Compound 579], for which the “LAD (lowest active dose)” value was 10.00 mg/kg.

Regarding `CCC(CC)C(c1ccc(NC(=O)C2CCN(C(=O)OC(C)(C)C)CC2)cc1)n1ccnc1` (racemic) [Compound 53], the “LAD (lowest active dose)” value is reported as over 2.50 mg/kg.

Regarding `CCC(CC)C(c1ccc(NC(=O)C(O)c2ccc(C)c(C)c2)cc1)n1cncn1` (mixture of isomers) [Compound 11], the “LAD (lowest active dose)” value is reported as over 2.50 mg/kg.
